How the values were obtained:
[1] = test system: tetrabenazine-induced learning deficit; experiment: Shuttle box: conditioned avoidance reflex, antagonism of tetrabenazine-induced learning deficit; type: in vivo, rat; conditions: for very high dose range effective in antagonizing the tetrabenazine-induced learning deficit: attributed to inhibition of MAO-A; for optimal dose that exerted the specific enhancer effect: rats given 1 mg/kg tetrabenazine s.c. one hour prior to training
Protocol: In a modified version of the shuttle box the acquisition of a two-way conditioned avoidance reflex (CAR) was analyzed during 5 consecutive days. The rat was put in a box divided inside into two parts by a barrier with a small gate in the middle, and the animal was trained to cross the barrier under the influence of a conditioned stimulus (CS, light flash). […] One trial consisted of 10 s intertrial interval, followed by 20 s CS. The last 5 s of CS overlaped the 5 s US. At each learning session, the number of CARs, EFs and intersignal reactions (IRs) are automatically counted and evaluated by multi-way ANOVA.
Tetrabenazine-treatment (1 mg/kg s.c.) depletes at least 90% of norepinephrine and dopamine from their stores in the nerve terminals of the catecholaminergic neurons in the brain stem. Due to the weak performance of the catecholaminergic brain engine, the activation of the cortical neurons remains below the level required for the acquisition of a CAR. The learning deficit caused by tetrabenazine-treatment can be antagonized by the administration of a synthetic CAE substance or an A-type MAO inhibitor, whereas selective inhibition of B-type MAO or inhibition of the reuptake of catecholamines and/or serotonin is ineffective (Knoll et al., 1992).

noradrenergic neurons = conditions: Knoll et al., 1999, cited from earlier work
Daoy HTB-186 cell line = experiment: MTT proliferation assay, Daoy medulloblastoma cells; type: cell-based, human; conditions: 72 hours; for proliferation of cultured cells, monotherapy: nine concentrations between 10^-14 and 10^-6 M, MTT
Protocol: Human medulloblastoma cell line, Daoy was purchased from ATCCC, UW-228 was obtained from the courtesy of Professor Silber (University of Washington, Seattle, Wash., USA).
Daoy and UW-228-2 cell lines were maintained in culture medium (each 500 ml Minimum Essential Medium Eagle, Alpha Modification (M8042, Sigma, St Louis, USA) with 50 ml FCS (Gibco), 40 mg Gentamicin (Sandoz), 5 ml sodium-pyruvate (S8636, Sigma, St Louis, USA), 5 ml non-essential-amino acid solution (M7145, Sigma, St Louis, USA), 10 ml L-glutamin (Sigma, St Louis, USA) at 37° C. in humified 5% CO2.
In each well 3×10^3 Daoy or UW-228-2 cells were seeded in 96-well plates (Sarstedt), solved in 100 µl of its own medium with 10% FCS. 24 hours after seeding, cells were treated for 72 hours by drugs solved in further 100 μl medium. First, both cell lines were treated by (−)-BPAP and (−)-deprenil in monotherapy to determine its dose-effect curves in concentration of 10^−6, 10^−7, […], 10^−9, 10^−10, 10^−11, 10^−12, 10^−13 and 10^−14 M. In combined treatment 10^−3, 3.3×10^−4, […] and 3.7×10^−5 M of temozolomide (Schering Plough, USA) or 0.04, 0.2, 1, 5 μM of Cisplatin (Ebewe Pharma, Austria) or 0.04, 0.2, 1, 5 μM of etoposide (Ebewe Pharma, Austria) or 10^−7, 10^−6, 10^−5 and 10^−4 μM (UW228-2) or 0.001, 0.005, 0.025 and 0.125 μM (Daoy) of Vincristin (Richter Gedeon, Hungary) were applied in monotherapy or combined with 10^−13 or 10^−8 M of (−)-BPAP or (−)-deprenil.
Cell proliferation was evaluated by MTT (3-(4,5-Dimethylthiazol-2-yl)-2,5-diphenyltetrazolium bromide) assay (M5655, Sigma) after 72-hour treatment by the method described in manufacturer's protocol.

MAO-A = molecular target: T1, MAO-A (Rattus norvegicus, UniProt P21396); conditions: Knoll et al., 1999; cited from earlier work
T1 construct: host or cells: animal dosed in mg/kg (in vivo)
T1 sequence (P21396 1-526): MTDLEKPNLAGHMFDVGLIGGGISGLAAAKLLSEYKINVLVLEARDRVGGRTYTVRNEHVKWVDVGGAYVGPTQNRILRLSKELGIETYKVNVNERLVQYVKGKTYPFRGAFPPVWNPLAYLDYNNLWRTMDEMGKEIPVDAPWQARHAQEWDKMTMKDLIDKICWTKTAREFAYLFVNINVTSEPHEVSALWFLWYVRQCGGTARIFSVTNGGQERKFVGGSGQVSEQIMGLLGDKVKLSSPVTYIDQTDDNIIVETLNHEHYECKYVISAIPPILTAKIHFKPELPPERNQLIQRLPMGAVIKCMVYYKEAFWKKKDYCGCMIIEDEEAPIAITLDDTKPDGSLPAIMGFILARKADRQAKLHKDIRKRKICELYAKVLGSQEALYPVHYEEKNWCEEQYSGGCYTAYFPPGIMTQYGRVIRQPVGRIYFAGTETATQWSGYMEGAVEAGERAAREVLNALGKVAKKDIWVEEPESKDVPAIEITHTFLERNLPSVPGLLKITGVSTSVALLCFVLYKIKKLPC

mammary tumors = conditions: ThyagaRajan et al. 1998; cited from earlier work
[2] = test system: Wistar-Logan strain of rats; conditions: cited from earlier work

Compound | very high dose range effective in antagonizing the tetrabenazine-induced learning deficit [1] | optimal dose that exerted the specific enhancer effect [1] | dose with the non-specific enhancer effect selected for the longevity study ([1]; rats given 1 mg/kg tetrabenazine s.c., for Deprenyl the less effective dose was chosen) | concentration range of the non-specific enhancer effect relative to the specific one (noradrenergic neurons; Knoll, Miklya, Knoll B, 2002) | concentration range of the specific enhancer effect (noradrenergic neurons) | effectiveness of tumor-cell proliferation inhibiting agents in combination (Daoy HTB-186 cell line; 10^-13 or 10^-8 M combined with temozolomide, Cisplatin, etoposide or Vincristin) | proliferation of cultured cells, monotherapy (Daoy HTB-186 cell line) | proliferation of cultured cells, monotherapy (Daoy HTB-186 cell line; listed as BPAP) | dose that blocks the activity of MAO-A (MAO-A) | form of the dose-effect relation of the enhancer effect ([1]; FIG. 3) | proliferation of cultured cells, monotherapy (Daoy HTB-186 cell line; listed as (−)-deprenyl) | proliferation of cultured cells, monotherapy (Daoy HTB-186 cell line; listed as Deprenyl) | dose inhibiting the development of mammary tumors (mammary tumors) | rats that lived longer than the maximum lifespan ever observed in the strain ([2]; out of the 50 treated HP rats) | lifespan ([2]; sexually high performing (HP) rats treated for life, n=50, saline HP 151.24±1.36) | lifespan versus saline-treated peers ([2]; sexually low performing (LP) rats treated for life, n=49, saline LP 134.58±2.29 weeks)
CCCN[C@H](CCC)Cc1cc2ccccc2o1 [(−)-BPAP, (R)-1-(benzofuran-2-yl)-2-propylamino pentane] | 2000 to 10000 µg/kg | 0.1 µg/kg | 50 µg/kg | 10 million times higher concentration range | femto/picomolar concentration range | did not change the effectiveness | did not inhibit the proliferation | In none of the applied concentrations | higher than 2 mg/kg |  |  |  |  |  |  | 
C#CCN(C)[C@H](C)Cc1ccccc1 [(−)-Deprenyl, (R)—N-methyl-N-(1-phenylpropan-2-yl)prop-2-yn-1-amine] | 5000 to 10000 µg/kg | 1 µg/kg |  |  |  |  |  |  |  | bi-modal, bell-shaped dose-effect-relation | did not inhibit the proliferation | In none of the applied concentrations | ≥ 0.25 mg/kg body weight | 17 rats | 185.30±1.96 weeks | lived significantly longer than their saline treated peers
